Results from patent publication US10894036B2, “Use of marizomib for the treatment of central nervous system (CNS) cancers” (Celgene International II Sàrl, priority 2016, dated 2021).

Assay: Phase 1/2 MRZ + BEV and MRZ monotherapy in recurrent G4 MG: adverse events, DLT
Details: for Ataxia: Treatment Related Grade ≥3 AE, # patients / Confusional State: Treatment Related Grade ≥3 AE, # patients / Delusion: Treatment Related Grade ≥3 AE, # patients / Dyspnea: Treatment Related Grade ≥3 AE, # patients / Embolism: Treatment Related Grade ≥3 AE, # patients / Fall: Treatment Related Grade ≥3 AE, # patients / Fatigue: Treatment Related Grade ≥3 AE, # patients / Hallucination: Treatment Related Grade ≥3 AE, # patients / Headache: Treatment Related Grade ≥3 AE, # patients / Hypertension: Treatment Related Grade ≥3 AE, # patients / Hyponatremia: Treatment Related Grade ≥3 AE, # patients / Insomnia: Treatment Related Grade ≥3 AE, # patients / Intracranial Hemorrhage: Treatment Related Grade ≥3 AE, # patients / Optic Nerve Disorder: Treatment Related Grade ≥3 AE, # patients / Proteinuria: Treatment Related Grade ≥3 AE, # patients: attributed to labelled agent
[1] = MRZ 0.7 mg/m^2 + BEV, Cohort 2, N = 3
[2] = MRZ 0.7 mg/m^2 Cohort 2 (N = 3)
[3] = MRZ 0.8 mg/m^2 + BEV N = 27, MRZ 0.8 mg/m^2 monotherapy N = 30
[4] = MRZ 0.8 mg/m^2 + BEV, Cohorts 3 & 4, N = 27
[5] = MRZ 0.8 mg/m^2 + BEV, N = 27, related to the labelled drug
[6] = MRZ 0.8 mg/m^2 Cohorts 3 & 4 (N = 27)
[7] = MRZ 0.8 mg/m^2 monotherapy, N = 30

Method: The clinical trial was a Phase 1, dose-escalation (3+3 design) followed by dose-expansion at recommended Phase 2 Dose (RP2D).
The drugs were infused on 28-Day Cycles. Tumor response is assessed every other cycle by RANO criteria.
The safety data will be presented in individual listings and summary tables, including frequency tables for adverse events and frequency and shift tables for laboratory variables. The safety population will be all subjects who received at least one dose of either study drug in Phase 1 or MRZ in Phase 2.

Compound: C[C@@]12OC(=O)[C@]1([C@@H](O)[C@@H]1C=CCCC1)NC(=O)[C@@H]2CCCl [marizomib]
- Confusional State, Treatment Related Grade ≥3 AE, patients [1]: 0
- Delusion, Treatment Related Grade ≥3 AE, patients [1]: 0
- Dyspnea, Treatment Related Grade ≥3 AE, patients [1]: 0
- Embolism, Treatment Related Grade ≥3 AE, patients [1]: 0
- Fall, Treatment Related Grade ≥3 AE, patients [1]: 0
- Fatigue, Treatment Related Grade ≥3 AE, patients [1]: 0
- Hallucination, Treatment Related Grade ≥3 AE, patients [1]: 0
- Headache, Treatment Related Grade ≥3 AE, patients [1]: 0
- Hypertension, Treatment Related Grade ≥3 AE, patients [1]: 0
- Hyponatremia, Treatment Related Grade ≥3 AE, patients [1]: 0
- Insomnia, Treatment Related Grade ≥3 AE, patients [1]: 0
- Intracranial Hemorrhage, Treatment Related Grade ≥3 AE, patients [1]: 0
- Optic Nerve Disorder, Treatment Related Grade ≥3 AE, patients [1]: 0
- Proteinuria, Treatment Related Grade ≥3 AE, patients [1]: 0
- Ataxia, Treatment Related Grade ≥3 AE, patients (MRZ 0.7 mg/m^2 + BEV, Cohort 2, N = 3, related to the labelled drug): 0
- Ataxia: Treatment Related Grade ≥3 AE, # patients [2]: 0
- Confusional State: Treatment Related Grade ≥3 AE, # patients [2]: 0
- Delusion: Treatment Related Grade ≥3 AE, # patients [2]: 0
- Dyspnea: Treatment Related Grade ≥3 AE, # patients [2]: 0
- Embolism: Treatment Related Grade ≥3 AE, # patients [2]: 0
- Fall: Treatment Related Grade ≥3 AE, # patients [2]: 0
- Fatigue: Treatment Related Grade ≥3 AE, # patients [2]: 0
- Hallucination: Treatment Related Grade ≥3 AE, # patients [2]: 0
- Headache: Treatment Related Grade ≥3 AE, # patients [2]: 0
- Hypertension: Treatment Related Grade ≥3 AE, # patients [2]: 0
- Hyponatremia: Treatment Related Grade ≥3 AE, # patients [2]: 0
- Insomnia: Treatment Related Grade ≥3 AE, # patients [2]: 0
- Intracranial Hemorrhage: Treatment Related Grade ≥3 AE, # patients [2]: 0
- Optic Nerve Disorder: Treatment Related Grade ≥3 AE, # patients [2]: 0
- Proteinuria: Treatment Related Grade ≥3 AE, # patients [2]: 0
- Fatigue, treatment-related AE, patients (MRZ 0.8 mg/m^2 + BEV Cohorts 3 & 4, N = 27, related to the labelled drug (MRZ + BEV = related to both)): 19 (70.4%)
- Patients with at Least One TEAE (MRZ 0.8 mg/m^2 + BEV Cohorts 3 & 4 N = 27, MRZ 0.8 mg/m^2 monotherapy N = 30): 29 (96.7%) ^[1]
- Anaemia, adverse event, patients [3]: 6 (20.0%)
- Ataxia, adverse event, patients [3]: 6 (20.0%)
- Confusional state, adverse event, patients [3]: 7 (23.3%)
- Constipation, adverse event, patients [3]: 9 (30.0%)
- Diarrhoea, adverse event, patients [3]: 7 (23.3%)
- Dizziness, adverse event, patients [3]: 5 (16.7%)
- Dysarthria, adverse event, patients [3]: 5 (16.7%)
- Dysphonia, adverse event, patients [3]: 1 (3.3%)
- Epistaxis, adverse event, patients [3]: 2 (6.7%)
- Fall, adverse event, patients [3]: 4 (13.3%)
- Fatigue, adverse event, patients [3]: 19 (63.3%)
- Hallucination, adverse event, patients [3]: 12 (40.0%)
- Headache, adverse event, patients [3]: 12 (40.0%)
- Hyperglycaemia, adverse event, patients [3]: 8 (27.6%)
- Hypertension, adverse event, patients [3]: 4 (13.3%)
- Hypokalemia, adverse event, patients [3]: 8 (27.6%)
- Infusion site pain, adverse event, patients [3]: 3 (10.0%)
- Insomnia, adverse event, patients [3]: 14 (46.7%)
- Nausea, adverse event, patients [3]: 11 (36.7%)
- Platelet count decreased, adverse event, patients [3]: 7 (23.3%)
- Vomiting, adverse event, patients [3]: 9 (30.0%)
- Confusional State, Treatment Related Grade ≥3 AE, patients [4]: 0
- Delusion, Treatment Related Grade ≥3 AE, patients [4]: 1
- Dyspnea, Treatment Related Grade ≥3 AE, patients [4]: 1
- Embolism, Treatment Related Grade ≥3 AE, patients [4]: 0
- Fall, Treatment Related Grade ≥3 AE, patients [4]: 1
- Fatigue, Treatment Related Grade ≥3 AE, patients [4]: 1
- Hallucination, Treatment Related Grade ≥3 AE, patients [4]: 1
- Headache, Treatment Related Grade ≥3 AE, patients [4]: 3
- Hypertension, Treatment Related Grade ≥3 AE, patients [4]: 0
- Hyponatremia, Treatment Related Grade ≥3 AE, patients [4]: 1
- Insomnia, Treatment Related Grade ≥3 AE, patients [4]: 1
- Intracranial Hemorrhage, Treatment Related Grade ≥3 AE, patients [4]: 0
- Optic Nerve Disorder, Treatment Related Grade ≥3 AE, patients [4]: 0
- Proteinuria, Treatment Related Grade ≥3 AE, patients [4]: 0
- Ataxia, Treatment Related Grade ≥3 AE, patients (MRZ 0.8 mg/m^2 + BEV, Cohorts 3 & 4, N = 27, related to the labelled drug): 1
- Anaemia, treatment-related AE, patients [5]: 5 (18.5%)
- Ataxia, treatment-related AE, patients [5]: 7 (25.9%)
- Confusional state, treatment-related AE, patients [5]: 7 (25.9%)
- Constipation, treatment-related AE, patients [5]: 5 (18.5%)
- Diarrhoea, treatment-related AE, patients [5]: 8 (29.6%)
- Dizziness, treatment-related AE, patients [5]: 8 (29.6%)
- Dysphonia, treatment-related AE, patients [5]: 1 (3.7%)
- Epistaxis, treatment-related AE, patients [5]: 0 (0.0%)
- Fall, treatment-related AE, patients [5]: 3 (11.1%)
- Hallucination, treatment-related AE, patients [5]: 12 (44.4%)
- Headache, treatment-related AE, patients [5]: 12 (44.4%)
- Hypertension, treatment-related AE, patients [5]: 1 (3.7%)
- Infusion site pain, treatment-related AE, patients [5]: 4 (14.8%)
- Muscular weakness, treatment-related AE, patients [5]: 3 (11.1%)
- Nausea, treatment-related AE, patients [5]: 17 (63.0%)
- Platelet count decreased, treatment-related AE, patients [5]: 2 (7.4%)
- Stomatitis, treatment-related AE, patients [5]: 3 (11.1%)
- Upper-airway cough syndrome, treatment-related AE, patients [5]: 0 (0.0%)
- Vomiting, treatment-related AE, patients [5]: 15 (55.6%)
- Ataxia: Treatment Related Grade ≥3 AE, # patients [6]: 1
- Confusional State: Treatment Related Grade ≥3 AE, # patients [6]: 0
- Delusion: Treatment Related Grade ≥3 AE, # patients [6]: 1
- Dyspnea: Treatment Related Grade ≥3 AE, # patients [6]: 1
- Embolism: Treatment Related Grade ≥3 AE, # patients [6]: 0
- Fall: Treatment Related Grade ≥3 AE, # patients [6]: 1
- Fatigue: Treatment Related Grade ≥3 AE, # patients [6]: 1
- Hallucination: Treatment Related Grade ≥3 AE, # patients [6]: 1
- Headache: Treatment Related Grade ≥3 AE, # patients [6]: 3
- Hypertension: Treatment Related Grade ≥3 AE, # patients [6]: 0
- Hyponatremia: Treatment Related Grade ≥3 AE, # patients [6]: 1
- Insomnia: Treatment Related Grade ≥3 AE, # patients [6]: 1
- Intracranial Hemorrhage: Treatment Related Grade ≥3 AE, # patients [6]: 0
- Optic Nerve Disorder: Treatment Related Grade ≥3 AE, # patients [6]: 0
- Proteinuria: Treatment Related Grade ≥3 AE, # patients [6]: 0
- Anaemia, MRZ related AE, patients [7]: 5 (16.7%
- Ataxia, MRZ related AE, patients [7]: 5 (16.7%)
- Confusional state, MRZ related AE, patients [7]: 6 (20.0%)
- Constipation, MRZ related AE, patients [7]: 6 (20.0%)
- Diarrhoea, MRZ related AE, patients [7]: 7 (23.3)
- Dizziness, MRZ related AE, patients [7]: 3 (10.0%)
- Dysphonia, MRZ related AE, patients [7]: 0
- Epistaxis, MRZ related AE, patients [7]: 1 (3.3%)
- Fall, MRZ related AE, patients [7]: 1 (3.3%)
- Fatigue, MRZ related AE, patients [7]: 18 (60.0%)
- Hallucination, MRZ related AE, patients [7]: 11 (36.7%)
- Headache, MRZ related AE, patients [7]: 11 (36.7%)
- Infusion site pain, MRZ related AE, patients [7]: 2 (6.7%)
- Muscular weakness, MRZ related AE, patients [7]: 0
- Nausea, MRZ related AE, patients [7]: 9 (30.0%)
- Platelet count decreased, MRZ related AE, patients [7]: 0
- Stomatitis, MRZ related AE, patients [7]: 0
- Upper-airway cough syndrome, MRZ related AE, patients [7]: 0
- Vomiting, MRZ related AE, patients [7]: 7 (23.3)
